Test results: patent publication US20240189279A1, “IMMUNOMODULATORY COMPOSITIONS AND METHODS OF USE THEREOF” (THE TEXAS A&M UNIVERSITY SYSTEM, priority 2022, published 2024)

What was measured:
[1] = I3A levels in fecal material, liver and serum after I3A in drinking water; format: in vivo, mice (male B6 129SF1/J); settings: WD and sugar water containing I3A vs same WD and SW without I3A
Description: Animal experiments. Male B6 129SF1/J mice at 6 weeks of age were obtained from Jackson Laboratories (Bar Harbor, ME). Mice were acclimatized to the animal facility for one week. At the start of the experiment, mice were randomly divided into four groups (n=10 for each group). Three of the four groups were fed ad libitum a Western diet (WD) with 40% Kcal from fat and containing 0.15% cholesterol (D12079B, Research Diets) and a sugar water (SW) solution (23.1 g/L d-fructose+18.9 g/L d-glucose) as previously described (DIAMOND model (15)). […] The WD group was fed WD and drank sugar water. […] The treatments were continued for another 8 weeks. Water bottles containing SW and I3A or only SW were changed every other day. A fourth group of mice was fed a low-fat control diet (D12450B, Research Diets) and normal water for 16 weeks (CN group) (FIG. 9A). FIG. 9A presents the study design. Mice belonging to the same treatment group were housed together (5 mice/cage). Mice were maintained on 12:12-h light-dark cycles. All procedures were performed in accordance with Texas A&M University Health Sciences Center Institutional Animal Care and Use Committee guidelines under an approved animal use protocol (AUP #2017-0145).
Sample collection. […] FIG. 9B presents the sampling scheme. All fecal pellets were flash frozen in liquid nitrogen after collection. […]

liver proteome = experiment: Liver untargeted proteomics in WD mice; format: in vivo, mice (male B6 129SF1/J)

Which “I3A levels in fecal material, liver and serum” value [1] does the source give for O=C([O-])Cc1c[nH]c2ccccc12.[Na+] [I3A, Indole-3-acetate sodium salt] here?
The value was “increased I3A levels in fecal material, the liver and serum”.

What about the “liver protein abundance profile (PLS-DA)” value (liver proteome; WD-50 group vs WD) of the same compound?
Its value is “not significantly different from the WD group”.

What about the “liver protein abundance profile (PLS-DA)” value (liver proteome; WD-100 group vs WD, p<0.001) of the same compound?
The value was “significantly different from the WD group”.
